From US20160158251A1, “COMPOSITION FOR PREVENTING OR TREATING MUSCULAR ATROPHY OR PROMOTING MUSCULAR REGENERATION IN SUBJECT COMPRISING SULFONAMIDE COMPOUND AND USE THEREOF” (Samsung Electronics Co., Ltd., priority 2014, published 2016)

Assays:
[1] = tested on: Human skeletal muscle satellite (HSkMS) cells; assay: Proliferation of human skeletal muscle satellite cells (cell count by hemocytometer, serum and growth factor starvation); type: cell-based; conditions: 24 hours, in comparison with serum starvation (FIG. 1)
Procedure: Human skeletal muscle satellite (HSkMS) cells were prepared to identify whether proliferation of skeletal muscle satellite cells is promoted by sulfonamide compounds.
The seeded HSkMS cells were cultured at 37° C. in a 5% CO2 incubator for 24 hours. Then, 0.1 μM, 1 μM, and 10 μM of each of sulfadiazine (Sigma-Aldrich), sulfamethoxazole (Sigma-Aldrich), sulfadoxine (Sigma-Aldrich), and sulfaguanidine (Sigma-Aldrich), as sulfonamide compounds, were added to the HSkMS cells, and the cells were incubated at 37° C. in a 5% CO2 incubator for 24 hours. After the incubation, the numbers of HSkMS cells were calculated using a hemocytometer.

MuRF-1 = MuRF-1 mRNA expression in differentiated C2C12 cells treated with dexamethasone (real time PCR); type: cell-based, mouse; conditions: sulfadiazine (1, 10 or 100 μM) 24 hours, then 2 μM dexamethasone 24 hours, vs. dexamethasone only (FIG. 2B)
Procedure: (§1) C2C12 cell lines (mouse gastrocnemius muscle, ATCC® CRL-1772™) were seeded in a 10% FBS/DMEM and incubated at 37° C. in a 5% CO2 incubator. When the cells were 70% confluent, the culture medium was replaced with 2% FBS/DMEM and the cells were cultured for 4 days to completely induce differentiation into muscle cells. C2C12 cell lines are mouse myoblast cell lines obtained by continuous culture of myoblast cells cultured from gastrocnemius muscle of C3H mice.
(§2) When C2C12 cells were completely differentiated into muscle cells, the culture medium was removed therefrom, and 4 ml of a fresh culture medium including 1 μM, 10 μM, or 100 μM of sulfadiazine (Sigma Aldrich) was added thereto, and then, the cells were cultured at 37° C. in a 5% CO2 incubator for 24 hours. […]
(§3) A Trizol reagent (Invitrogen) was added to the collected cells, and total RNA was separated therefrom according to manufacturer's protocols. […] Amounts of mRNA of Atrogin-1 and MuRF-1 were quantified using a real time PCR device (MyiQPCR instrument, BioRad) that is a device measuring SYBR Green. […]
(§4) Values obtained via amplification were normalized to GAPDH gene expression, and relative expression levels of mRNA of Atrogin-1 and MURF-1 were quantified. The quantified relative expression levels (arbitrary unit (AU)) of mRNA of Atrogin-1 and MURF-1 are illustrated in FIGS. 2A and 2B, respectively (*: p<0.05 vs. dexamethasone)

Atrogin-1 = Atrogin-1 mRNA expression in differentiated C2C12 cells treated with dexamethasone (real time PCR); type: cell-based, mouse; conditions: sulfadiazine (1, 10 or 100 μM) 24 hours, then 2 μM dexamethasone 24 hours, vs. dexamethasone only (FIG. 2A)
Procedure: as §1, §2, §3, §4

SMILES	proliferation of the HSkMS cells ([1]; 1 μM)	proliferation of the HSkMS cells ([1]; 10 μM)	expression of mRNA of MuRF1 (MuRF-1)	expression of mRNA of Atrogin-1 (Atrogin-1)
Nc1ccc(S(=O)(=O)Nc2ncccn2)cc1 [sulfadiazine]	promoted in all groups, in comparison with serum starvation, except for the groups	promoted in all groups, in comparison with serum starvation, except for the groups	decreased	decreased
NC(N)=NS(=O)(=O)c1ccc(N)cc1 [sulfaguanidine]		promoted in all groups, in comparison with serum starvation, except for the groups		
Cc1cc(NS(=O)(=O)c2ccc(N)cc2)no1 [sulfamethoxazole]		promoted in all groups, in comparison with serum starvation, except for the groups		
